Reference: patent publication US9409975B2, “Antibody binding microbial heparin binding motif to retard or prevent microbial biofilm formation on implanted medical devices” (priority 2012, dated 2016)
Entries after “also recorded” stand apart in the source; their conditions may differ.

Columns and labels:
[1] = tested on: Candida albicans BWP17 wt; test: Filipin and calcofluor white staining microscopy with or without heparin; type: cell-based; conditions: 100 units/ml heparin, heparin-treated vs untreated organisms
Description: Heparin effect on Candida albicans growth and morphology was determined. A single colony of BWP17 wt was inoculated into 3 ml YPD medium and incubated overnight at 30° C. with shaking at 225 rpm. Overnight cultures were diluted to an OD600 of 0.1 in 5 ml of YPD (yeast) or RPMI-HEPES (hyphae) in a 50 ml conical polypropylene tube and incubated in the presence or absence of 100 units/ml preservative-free pharmaceutical heparin at 30° C. for six hours. Cells (1 ml) were fixed with an equal volume of 4% formaldehyde in FACS buffer at 4° C. for one hour, then pelleted (7,000 rpm for 3 minutes) and washed with PBS. After reconstitution in 0.5 ml PBS, filipin (50 mg/ml stock solution in DMSO) was added to a final concentration of 100 μg/ml and incubated with cells at room temperature for five minutes. Cells were pelleted, washed with PBS and mounted on a slide using Fluoromount G. For calcofluor white staining, after six hours incubation, 1 μl of 1 mg/ml stock solution of calcofluor white in 0.1 N NaOH was added to 100 μl cells to a final calcofluor white concentration of 10 μg/ml.
Microscopy was performed by imaging filipin, PKH26, DAPI, and heparin-Alexa Fluor 488 on a Nikon Ti-E inverted microscope with a 100×CFI APO oil NA 1.49 objective. Filipin was excited with a Prior Lumen 200 metal halide light source set at 10% light output. […]

[2] = tested on: Candida albicans BWP17 wt planktonic growth; test: Growth curves and doubling times in presence or absence of soluble heparin; type: cell-based; conditions: 100 units/ml heparin
Description: For growth curves in the presence or absence of soluble heparin, a single colony of BWP17 wt was inoculated into 3 ml YPD medium and incubated overnight at 30° C. with shaking at 225 rpm. Overnight cultures were diluted to an OD600 of 0.1 in 5 ml of YPD, RPMI-MOPS, RPMI-HEPES or CSM in a 50 ml conical polypropylene tube. Preservative-free pharmaceutical heparin (1000 units/ml) was added to yield a final concentration of 100 units/ml in the heparin-treated samples. Cultures were grown at 30° C. with shaking and OD600 measured periodically. Doubling times (td) were calculated based on the equation td=ln 2/μ (μ=specific growth rate (48). One hundred units/ml heparin, the concentration recommended to prevent clotting of central venous catheters (20), had no effect on doubling times of planktonic yeast cells grown in YPD, RPMI-HEPES, RPMI-MOPS or CSM, as shown in FIGS. 2A and 2B.
A single copy of Int1, including 1450 bp upstream and 548 bp downstream from the Int1 open reading frame (www.candidagenome.org, Assembly 21), was integrated into the hisG locus of the int1−/− strain VBIDM2 (54) to produce the reconstituted strain KO509. Briefly, a copy of Int1 was generated by PCR, using primers 1 and 2 with BWP17 wt DNA as template and cloned into the SacI/MluI sites of pGEMHIS (51) to create pKO509. pKO509 was digested with SwaI and transformed into VBIDM2 to create the reconstituted strain KO509. PCR-mediated overlap extension mutagenesis (55) was used to produce copies of Int1 mutated at putative heparin binding domains. Briefly, primer pairs 1+3 and 2+4 (or 1+5 and 2+6) were used to produce two overlapping fragments of INT1 in which putative heparin binding domains were mutated (FKKRFFKL (SEQ ID NO: 2)→FKAAFFKL (SEQ ID NO: 53) or KQKKHQ (SEQ ID NO: 64)→KQAAHQ (SEQ ID NO: 63)), and a full length mutated sequence generated in a third […] using primers 1+2 with the fragments as template. […] Percent binding of each mutant to heparin in the ELISA assay was compared to the wild type according to the formula [Absorbance595 mutant]/[Absorbance595 wild type]×100.

heparin was tested, and the “integrity of membrane sterols (filipin) and location of septin rings (calcofluor white)” value [1] was “identical”, the “growth curves in presence or absence of soluble heparin” value [2] was “identical” and the “doubling times of wild type, Δint1 mutant, INT1 reintegrant and Motif 1, Motif 4, Motifs 1 and 4 reintegrants with and without heparin” value ([2]; 30° C., RPMI-HEPES) was “no difference”. For the same substance, the “effect on doubling times of planktonic yeast cells” value ([2]; 30° C., YPD, RPMI-HEPES, RPMI-MOPS or CSM) was “no effect; also recorded: identical”.
